In ChEMBL document CHEMBL3045339, “Synthesis of benzoxazoles, benzothiazoles and benzimidazoles and evaluation of their antifungal, insecticidal and herbicidal activities” (1992):
Values after ≈ are worked out from the molar mass of the structure shown.

What was measured:
Format in all cases: functional
Bacillus subtilis = assay: Antibacterial activity against Bacillus subtilis after 48 hr
Pseudomonas aeruginosa = assay: Antibacterial activity against Pseudomonas aeruginosa after 48 hr
Escherichia coli = assay: Antibacterial activity against Escherichia coli after 48 hr
Persicaria hydropiper [1] = assay: Herbicidal activity against Persicaria hydropiper assessed as disease control at 1000 ppm treated in soil during 15 to 20 days relative to control
Chenopodium album [2] = assay: Herbicidal activity against Chenopodium album assessed as disease control at 1000 ppm treated in foliage during 15 to 20 days relative to control
Eleusine indica [3] = assay: Herbicidal activity against Eleusine indica assessed as disease control at 1000 ppm treated in foliage during 15 to 20 days relative to control
Persicaria hydropiper [4] = assay: Herbicidal activity against Persicaria hydropiper assessed as disease control at 1000 ppm treated in foliage during 15 to 20 days relative to control
Mycobacterium = assay: Antibacterial activity against Mycobacterium ovicum after 48 hr
Echinochloa crus-galli [5] = assay: Herbicidal activity against Echinochloa crus-galli (barnyard grass) assessed as disease control at 1000 ppm treated in soil during 15 to 20 days relative to control
Panonychus citri [6] = assay: Insecticidal activity against Panonychus citri at 500 ppm up to 21 days
Eleusine indica [7] = assay: Herbicidal activity against Eleusine indica assessed as disease control at 1000 ppm treated in soil during 15 to 20 days relative to control
Staphylococcus aureus = assay: Antibacterial activity against Staphylococcus aureus after 48 hr
Amaranthus viridis [8] = assay: Herbicidal activity against Amaranthus viridis assessed as disease control at 1000 ppm treated in foliage during 15 to 20 days relative to control
Amaranthus viridis [9] = assay: Herbicidal activity against Amaranthus viridis assessed as disease control at 1000 ppm treated in soil during 15 to 20 days relative to control
Fusarium fujikuroi = assay: Antifungal activity against Fusarium fujikuroi after 7 days; set-up: concentration or dose not given beside the values
Cyperus compressus = assay: Herbicidal activity against Cyperus compressus assessed as disease control at 1000 ppm treated in paddy field during 15 to 20 days relative to control
Pyricularia oryzae = assay: Antifungal activity against Magnaporthe oryzae after 7 days; set-up: concentration or dose not given beside the values
[10] = tested on: Pseudoperonospora cubensis; assay: Antifungal activity against Pseudoperonospora cubensis after 7 days; set-up: concentration or dose not given beside the values
Echinochloa crus-galli [11] = assay: Herbicidal activity against Echinochloa crus-galli (barnyard grass) assessed as disease control at 1000 ppm treated in paddy field during 15 to 20 days relative to control
Echinochloa crus-galli [12] = assay: Herbicidal activity against Echinochloa crus-galli (barnyard grass) assessed as disease control at 1000 ppm treated in foliage during 15 to 20 days relative to control
Oryza sativa = assay: Herbicidal activity against Oryza sativa assessed as disease control at 1000 ppm treated in paddy field during 15 to 20 days relative to control
Xanthomonas axonopodis = assay: Antibacterial activity against Xanthomonas axonopodis after 7 days; set-up: concentration or dose not given beside the values
Botrytis cinerea = assay: Antifungal activity against Botryotinia fuckeliana after 7 days; set-up: concentration or dose not given beside the values
Chenopodium album [13] = assay: Herbicidal activity against Chenopodium album assessed as disease control at 1000 ppm treated in soil during 15 to 20 days relative to control
Panonychus citri [14] = assay: Insecticidal activity against Panonychus citri at 200 ppm up to 21 days

SMILES | MIC (Bacillus subtilis) | MIC (Pseudomonas aeruginosa) | Activity (Persicaria hydropiper [1]) | Activity (Chenopodium album [2]) | Activity (Eleusine indica [3]) | Activity (Persicaria hydropiper [4]) | Activity (Echinochloa crus-galli [5]) | Activity (Eleusine indica [7]) | Activity (Amaranthus viridis [8]) | Activity (Amaranthus viridis [9]) | Activity (Fusarium fujikuroi) | Activity (Cyperus compressus) | Activity (Pyricularia oryzae) | Activity [10] | Activity (Echinochloa crus-galli [11]) | Activity (Echinochloa crus-galli [12]) | Activity (Oryza sativa) | Activity (Xanthomonas axonopodis) | Activity (Botrytis cinerea) | Activity (Chenopodium album [13]) | other results
c1ccc2[nH]c(-c3ccnc4ccccc34)nc2c1 | 100 µg/mL (≈ 408 µM) | 100 µg/mL (≈ 408 µM) |  |  |  |  |  |  |  |  |  |  |  |  |  |  |  |  |  |  | MIC (Escherichia coli): 100 µg/mL (≈ 408 µM)
Clc1ccc2nc(-c3ccccn3)[nH]c2c1 | 50 µg/mL (≈ 218 µM) | 100 µg/mL (≈ 435 µM) | <39% | <39% | <39% | <39% | <39% | <39% | <39% | <39% | <39% | <39% | 60% | >80% | <39% | <39% | <39% | 60% | >80% | <39% | MIC (Mycobacterium): 50 µg/mL (≈ 218 µM); Activity (Panonychus citri [6]): 32.5%; MIC (Staphylococcus aureus): 50 µg/mL (≈ 218 µM); MIC (Escherichia coli): 50 µg/mL (≈ 218 µM)
Clc1cccc2nc(-c3ccccn3)[nH]c12 |  |  | <39% | <39% | <39% | <39% | <39% | <39% | <39% | <39% | <39% | <39% | >80% | <39% | <39% | <39% | <39% | 60% | >80% | <39% | Activity (Panonychus citri [6]): 91.5%
FC(F)(F)c1ccc2sc(-c3ccccn3)nc2c1 |  |  | <39% | >80% | <39% | <39% | <39% | <39% | >80% | 60% | <39% | >80% | <39% | <39% | >80% | <39% | <39% | <39% | <39% | <39% | Activity (Panonychus citri [6]): 81.3%
O=[N+]([O-])c1ccc2[nH]c(-c3ccccn3)nc2c1 | 50 µg/mL (≈ 208 µM) | 100 µg/mL (≈ 416 µM) | <39% | <39% | <39% | <39% | <39% | <39% | <39% | <39% | <39% | <39% | 60% | <39% | <39% | <39% | <39% | 40% | <39% | <39% | MIC (Mycobacterium): 50 µg/mL (≈ 208 µM); MIC (Staphylococcus aureus): 50 µg/mL (≈ 208 µM); MIC (Escherichia coli): 10 µg/mL (≈ 41.6 µM)
OC(c1ccc(Cl)cc1)(c1ccc(Cl)cc1)C(Cl)(Cl)Cl [DICOFOL] |  |  |  |  |  |  |  |  |  |  |  |  |  |  |  |  |  |  |  |  | Activity (Panonychus citri [14]): 98.3%
